Results on 1 compound are retold here after US10980835B2, “Arsenic trioxide for treatment of PIN1-associated disorders” (Beth Israel Deaconess Medical Center, Inc., priority 2016, dated 2021).

The test system of assay [1] is triple negative breast cancer PDX. Nature of the assay: Triple negative breast cancer patient derived xenograft (PDX) mouse model. It is filed as in vivo. An excerpt:
FIGS. 18A-D show the effect of ATO and ATRA on a triple negative breast cancer patient-derived xenograft (PDX) mouse model, where treatment was initiated two weeks after implantation. FIG. 18A is a graph showing that combination treatment with ATRA and ATO results in greater tumor growth inhibition than treatment with either ATRA or ATO, alone. FIG. 18B is image of the excised tumors corresponding to FIG. 18A. FIG. 18C is a graph depicting tumor volume corresponding to the tumors picture in FIG. 18B.
FIGS. 19A-C show the effect of ATO and ATRA on a triple negative breast cancer PDX mouse model, where treatment was initiated when the tumor volume reached to 250 mm^3. FIG. 19A is a graph showing that combination treatment with ATRA and ATO results in greater tumor growth inhibition than treatment with either ATRA or ATO, alone. FIG. 19B is image of the excised tumors corresponding to FIG. 19A. FIG. 19C is a graph depicting tumor volume corresponding to the tumors picture in FIG. 19B.
FIGS. 20A-D show the effect of ATO and ATRA on a triple negative breast cancer PDX mouse model, where treatment was initiated when the tumor volume reached to 300 mm^3. FIG. 20A is a graph showing that combination treatment with ATRA and ATO results in greater tumor growth inhibition than treatment with either ATRA or ATO, alone. FIG. 20B is image of the excised tumors corresponding to FIG. 20A. FIG. 20C is a graph depicting tumor volume corresponding to the tumors picture in FIG. 20B. FIG. 20D is a western blot depicting a decrease in Pin1 expression following treatment with either ATO, ATRA, or a combination of ATO and ATRA.
A PDX mouse model of triple negative breast cancer was treated with either ATO (2 mg/kg every other day), ATRA (5 mg 21 day slow releasing pellets), or a combination of both ATO (2 mg/kg every other day) and ATRA (5 mg 21 day slow releasing pellets). Treatment was initiated two weeks after implantation. Tumor growth was measured weekly for 7 weeks.
Furthermore, a PDX mouse model of triple negative breast cancer was treated with either ATO (2 mg/kg every other day), ATRA (5 mg 21 day slow releasing pellets), or a combination of both ATO (2 mg/kg every other day) and ATRA (5 mg 21 day slow releasing pellets). Treatment was initiated when the tumor volume reached 250 mm^3. Tumor growth was measured weekly for 6 weeks.
Finally, a PDX mouse model of triple negative breast cancer was treated with either ATO (2 mg/kg every other day), ATRA (5 mg 21 day slow releasing pellets), or a combination of both ATO (2 mg/kg every other day) and ATRA (5 mg 21 day slow releasing pellets). Treatment was initiated when the tumor volume reached 300 mm^3. Tumor growth was measured weekly for 6 weeks. […]
A general note: Xenograft models place foreign cells or tissue in a host animal.

Assay [2] relates to TNBC 231 and 159 cells (breast TICs). Nature of the assay: Serial mammosphere formation assay. It is filed as cell-based, human. Particulars: serial propagation M1-M4. On the procedure:
FIG. 22C is a graph showing that ATO and ATRA co-treatment dramatically reduces tumor growth.
(§1) To examine the effects of ATO and ATRA on TICs in TNBC, 231 and 159 cells were treated with ATO (1 μM), ATRA (10 μM) or their combination, followed by assaying the breast TIC-enriched CD24-CD44+ or ALDH+ population using fluorescence-activated cell sorting (FACS). […] To examine the effects of ATO and ATRA on self-renewal of breast TICs, different TNBC cells were treated with ATO, ATRA or their combination, followed by a serial mammosphere formation assay.
Breast TICs are notoriously resistant to cytotoxic chemotherapy drugs such as taxol, which is commonly used to treat TNBC. While taxol treatment kills non-TIC cancer cells, it is ineffective against TICs, leading to TIC-enriched taxol-resistant cells. […] Thus, the combination of ATO and ATRA inhibits the growth of taxol-resistant TNBCs. This raised the question of whether the combination of ATO and ATRA could inhibit tumor initiation and growth of breast TICs in vivo. Accordingly, the effects of ATO and ATRA combination therapy on tumor initiation of TNBCs were assayed using a limiting dilution assay in mice, a standard approach to determine tumor initiation.

In the next assay the target is T1, Pin1 (Homo sapiens, UniProt Q13526).
T1 construct: followed by assaying Pin1 levels using immunoblotting; endogenous in cells; host or cells: SUM159, Hs578T, MDA-MB-231 (printed MBA-MB-231)
As to the kind of experiment: Pin1 protein levels in triple negative breast cancer cell lines by immunoblotting. It is filed as cell-based. Particulars: SUM159, Hs578T and MBA-MB-231 cells. The text has this:
FIG. 5 is a series of western blots and corresponding graphs of quantified protein expression depicting arsenic trioxide-induce Pin1 degradation in triple-negative breast cancer cell lines (SUM159, Hs578T, and MBA-MB-231).
FIG. 7 is a series of western blots and corresponding graphs of quantified protein expression levels showing that, in triple-negative breast cancer cell lines (SUM159 and Hs578T), arsenic trioxide-induced Pin1 degradation is blocked by the proteasome inhibitor, MG132.
FIG. 8 is a series of western blots and corresponding graphs of quantified protein expression levels showing that all-trans retinoic acid (ATRA) induces Pin1 degradation in triple-negative breast cancer cell lines (SUM159, Hs578T, and MBA-MB-231).
FIG. 9 is a series of western blots and corresponding graphs of quantified protein expression levels depicting decrease in Pin1 protein expression in triple-negative breast cancer cells (SUM159, Hs578T, and MBA-MB-231) following combination treatment with ATO and ATRA, as compared to treatment with either ATO or ATRA, alone. […]
Two different human triple negative breast cancer cell lines (SUM159 and Hs578T) were treated with different concentrations of ATO in the presence of the proteasome inhibitor MG132 or vehicle control DMSO. […] cells were collected and lysed and levels of Pin1 protein expression were quantified by immunoblotting. […]

Another assay concerns Hs578t and SUM159 cells. Nature of the assay: FACS quantification of ALDH+ cells. It is filed as cell-based, human. The text has this: FIG. 11 is a series of plots generated by fluorescence-activated cell sorting (FACS) and a corresponding graph that depicts the quantification of aldehyde dehydrogenase-positive (ALDH+) cells following treatment with ATRA, ATO, or a combination of ATRA and ATO. ALDH is tumor marker associated with breast cancer stem cells. The fraction of ALDH+ cells is decreased in Hs578T cells treated with ATRA+ATO, as compared to those treated with either ATRA or ATO, alone.
FIG. 12 is a series of plots generated by fluorescence-activated cell sorting (FACS) and a corresponding graph that depicts the quantification of aldehyde dehydrogenase-positive (ALDH+) cells following treatment with ATRA, ATO, or a combination of ATRA and ATO. ALDH is tumor marker associated with breast cancer stem cells. The fraction of ALDH+ cells is decreased in SUM159 cells treated with ATRA+ATO, as compared to those treated with either ATRA or ATO, alone.
Two different human triple negative breast cancer cell lines (Hs578t and SUM159) were treated with ATRA, ATO, or a combination of ATRA and ATO. Fluorescence-activated cell sorting (FACS) was used to quantify the proportion of aldehyde dehydrogenase-positive (ALDH+) cells following treatment. […]

The test system of assay [3] is MDA-MB-231 breast cancer cell line. Nature of the assay: Intracellular arsenic levels by ICP-Masspec. It is filed as cell-based, human. Particulars: MDA-MB-231 cells treated with ATRA, relative to control. The method, then:
FIGS. 16A-C are a series of graphs showing that ATRA increases intracellular arsenic concentration measured by ICP-Masspec.
Intracellular arsenic levels were measured by ICP-Masspec in breast cancer cells lines treated with either ATRA, shRNA knockdown of AQP9, or overexpression of AQP9.

Another assay relates to 231 and 159 cells. As to the kind of experiment: FACS of breast TIC-enriched CD24-CD44+ or ALDH+ population. It is filed as cell-based, human. The method, then: as §1
The subject of assay [4] is Human triple negative breast cancer MBA-MB-231 cells. Nature of the assay: Mouse orthotopic implantation model with MBA-MB-231 cells. It is filed as in vivo. Particulars: nude mice, ATO 2 mg/kg every other day, ATRA 5 mg 21 day pellets, 6 weeks. The text has this: FIG. 17A is a graph showing that combination treatment with ATRA and ATO results in greater tumor growth inhibition than treatment with either ATRA or ATO, alone. FIG. 17B is image of the excised tumors corresponding to FIG. 17A. FIG. 17C is a graph depicting tumor volume corresponding to the tumors pictured in FIG. 17B.
Human triple negative breast cancer MBA-MB-231 cells were orthotopically implanted into nude mice. A week after tumor growth was notable, mice were randomly grouped and treated with either ATO (2 mg/kg every other day), ATRA (5 mg 21 day slow releasing pellets), or a combination of both ATO (2 mg/kg every other day) and ATRA (5 mg 21 day slow releasing pellets). Tumor growth was measured weekly for 6 weeks.

T1 sequence (Q13526 whole entry): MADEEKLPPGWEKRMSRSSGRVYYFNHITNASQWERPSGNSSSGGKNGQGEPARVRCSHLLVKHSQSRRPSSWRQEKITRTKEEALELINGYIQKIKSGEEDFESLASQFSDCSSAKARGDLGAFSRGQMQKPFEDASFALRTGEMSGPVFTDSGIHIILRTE

With `CC1=C(/C=C/C(C)=C/C=C/C(C)=C/C(=O)O)C(C)(C)CCC1` [ATRA, all-trans retinoic acid], the “Pin1 levels in tumors” value in assay [1] (treatment initiated at 300 mm^3) is on record as “decreased”. Besides, the Tumor growth result is “inhibited tumor growth” in assay [1] (treatment initiated two weeks after implantation, 7 weeks); “inhibited tumor growth” in assay [1] (treatment initiated when tumor volume reached 250 mm^3, 6 weeks); “inhibited tumor growth” in assay [1] (treatment initiated when tumor volume reached 300 mm^3, 6 weeks); “inhibited tumor growth” in assay [4]. Further, the Mammosphere formation efficiency result in assay [2] is listed as “strongly impaired mammosphere formation efficiency at M2-3”. The “Pin1 levels (degradation)” value on Pin1 was “induced Pin1 degradation in a dose-dependent manner”. In addition, the “Proportion of ALDH+ cells” value in the assay on Hs578t and SUM159 cells is listed as “decreased the proportion of ALDH+ cells”. Moreover, the Intracellular arsenic concentration entry in assay [3] is “increase intracellular arsenic concentrations relative to control”. The “Breast TIC-enriched CD24-CD44+ or ALDH+ population” value in the assay with 231 and 159 cells is recorded as “significantly reduced breast TIC-enriched population”.
